In patent US20220000841A1, “INHIBITORS OF METALLO-BETA-LACTAMASES” (CENTRE NATIONAL DE LA RECHERCHE SCIENTIFIQUE, priority 2018, published 2022):
Read-outs that look alike come from different tables or passages of the source.

Columns and labels:
VIM-1 = VIM-1 (Pseudomonas aeruginosa, UniProt A0A0F7KYQ8); assay: Enzymatic assay for determination of inhibition constants, reporter substrate method, purified VIM-1; type: biochemical; conditions: for Ki: isolated MBL, competitive inhibition model;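 on all read-outs here: initial hydrolysis rates of a reporter β-lactam (imipenem, meropenem, cefotaxime or nitrocefin) followed by absorbance change, purified enzyme at 1–70 nM in 50 mM HEPES pH 7.5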
Method: (§1) The reaction rate was measured as the variation of absorbance observed upon substrate hydrolysis in a UV-Vis spectrophotometer or microplate reader at a wavelength of 300 nm (imipenem, meropenem), 260 nm (cefotaxime) or 482 nm (nitrocefin) in 50 mM HEPES buffer (pH 7.5) and in the presence of a purified MBL enzyme (such as VIM-1, VIM-2, VIM-4, NDM-1 and IMP-1, at a final concentration ranging 1-70 nM).
(§2) The inhibition constants (Ki) were determined on the basis of a model of competitive inhibition by analyzing the dependence of the ratio v0/vi (v0, hydrolysis velocity in the absence of inhibitor; vi, hydrolysis velocity in the presence of inhibitor) as a function of [I] as already described [Docquier J. D., Lamotte-Brasseur J., Galleni M., Amicosante G., Frère J. M., Rossolini G. M. (2003) J. Antimicrob. […] The slope of the plot of v0/vi vs [I], which corresponds to Km^S/(Km^S+[S])Ki (where Km^S is the Km value of the reporter substrate and [S] its concentration in the reaction mixture) and allowed the calculation of the Ki value. Alternatively, a Dixon plot analysis was carried out, by measuring the initial hydrolysis rates in the presence of variable concentrations of inhibitor and substrate.

VIM-2 = VIM-2 (Escherichia coli, UniProt Q5U7L7); assay: Enzymatic assay for determination of inhibition constants, reporter substrate method, purified VIM-2; type: biochemical; conditions: for % inhibition VIM-2: at 100 μM (maximal tested concentration);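 on all read-outs here: purified VIM-2 hydrolysing a reporter substrate (imipenem, meropenem, cefotaxime or nitrocefin), reaction rate read as absorbance change, HEPES 50 mM at pH 7.5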
Method: as §1, §2

NDM-1 = NDM-1 (Klebsiella pneumoniae, UniProt C7C422); assay: Enzymatic assay for determination of inhibition constants, reporter substrate method, purified NDM-1; type: biochemical; conditions: for Ki: isolated MBL, competitive inhibition model; for % inhibition NDM-1: at 100 μM (maximal tested concentration);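 on all read-outs here: purified enzyme activity followed as absorbance change from reporter substrate hydrolysis on a UV-Vis spectrophotometer or plate reader, 50 mM HEPES pH 7.5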
IMP-1 = IMP-1 (Serratia marcescens, UniProt P52699); assay: Enzymatic assay for determination of inhibition constants, reporter substrate method, purified IMP-1; type: biochemical; conditions: for Ki: isolated MBL, competitive inhibition model;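 on all read-outs here: purified IMP-1 (1-70 nM) hydrolysing a reporter substrate, initial rates followed as absorbance change at 260, 300 or 482 nm in 50 mM HEPES pH 7.5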
[1] = tested on: K. pneumoniae SI-001 (blaVIM-1+); assay: Broth microdilution MIC of meropenem in absence and presence of MBL inhibitor, SI-001; type: cell-based; conditions: MBL inhibitor fixed at 32 μg/ml, Mueller-Hinton broth, duplicate
Method: (§3) This method was performed in agreement with the CLSI recommendations (document M07-A10, 2015, “Methods for Dilution Antimicrobial Susceptibility Tests for Bacteria That Grow Aerobically”).
(§4) MIC values of meropenem (MEM) were determined in duplicate in Mueller-Hinton broth as recommended by CLSI (document M07-A10, 2015), in absence and presence of a fixed concentration of MBL inhibitor (32 μg/ml).

[2] = tested on: K. pneumoniae S1-002 (blaVIM-4+); assay: Broth microdilution MIC of meropenem in absence and presence of MBL inhibitor, S1-002; type: cell-based; conditions: MBL inhibitor fixed at 32 μg/ml, Mueller-Hinton broth, duplicate
Method: as §3, §4

VIM-4 = VIM-4 (Pseudomonas aeruginosa, UniProt Q8KRJ3); assay: Enzymatic assay for determination of inhibition constants, reporter substrate method, purified VIM-4; type: biochemical; conditions: at 100 μM (maximal tested concentration);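 further: purified VIM-4 (1-70 nM) in 50 mM HEPES pH 7.5, reporter substrate hydrolysis rate tracked by absorbance change (nitrocefin 482 nm, imipenem or meropenem 300 nm, cefotaxime 260 nm)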
Method: as §1, §2

[3] = tested on: E. coli AS19 [pLBII-VIM2]; assay: microbe, parasite or virus in culture; type: cell-based, Escherichia coli; conditions: Escherichia coli, read-out: Inhibition zone diameter AS 19, difference between measured diameter and diameter without compound
Method: A] A disk-diffusion test in which the inhibitor was added (40-320 μg) to a disk containing a defined amount of a β-lactam antibiotic (such as 30 μg cefoxitin) was used to evaluate the antimicrobial activity (corresponding to the diameter of the growth inhibition zone, expressed in mm) of the combination when compared of that of the antibiotic alone.
These tests were performed on isogenic laboratory strains (such as Escherichia coli DH5a or XL-1) producing a defined MBL after its transformation with a pLB-II plasmid derivative (such as pLBII-VIM-2) [Borgianni L., Vandenameele J., Matagne A., Bini L., Bonomo R. A., Frere J. M., Rossolini G. M., Docquier J. D. (2010) Antimicrob. Agents Chemother. 54, 3197-3204] harbouring a cloned gene encoding the functional metallo-β-lactamase. Alternatively, hyperpermeable strains (such as Escherichia coli AS19) were used instead of Escherichia coli DH5α or XL-1.

[4] = isolated MBL, competitive inhibition model, read-out: Ki VIM-2
[5] = at 100 μM (maximal tested concentration)

NDM-1, sequence (C7C422 29-270, looked up, species assumed): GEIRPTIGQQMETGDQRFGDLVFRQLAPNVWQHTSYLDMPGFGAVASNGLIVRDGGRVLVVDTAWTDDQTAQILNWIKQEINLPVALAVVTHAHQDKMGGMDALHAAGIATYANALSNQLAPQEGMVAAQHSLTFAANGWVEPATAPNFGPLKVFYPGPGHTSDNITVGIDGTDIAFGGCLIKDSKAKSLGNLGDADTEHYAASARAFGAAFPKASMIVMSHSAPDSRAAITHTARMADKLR
IMP-1, sequence (P52699 19-246, looked up, species assumed): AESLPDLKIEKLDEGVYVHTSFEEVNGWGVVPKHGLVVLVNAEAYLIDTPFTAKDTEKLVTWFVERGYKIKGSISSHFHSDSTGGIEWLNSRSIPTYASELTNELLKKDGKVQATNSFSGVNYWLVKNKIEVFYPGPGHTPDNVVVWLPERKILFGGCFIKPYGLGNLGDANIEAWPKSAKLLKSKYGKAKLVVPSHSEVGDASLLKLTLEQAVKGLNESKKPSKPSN

Row | Compound | Ki (VIM-1) [µM] | Ki (VIM-2; [4]) [µM] | Ki (NDM-1) [µM] | Ki (IMP-1) [µM] | MIC potentiation of meropenem (x.log2 dilutions), K. pneumoniae SI-001 (blaVIM-1+) [1] [log2 dilutions] | MIC potentiation of meropenem (x.log2 dilutions), K. pneumoniae S1-002 (blaVIM-4+) [2] [log2 dilutions] | % inhibition NDM-1 (NDM-1) [% at 100 μM] | % inhibition IMP-1 (IMP-1; [5]) [% at 100 μM] | % inhibition VIM-1 (VIM-1; [5]) [% at 100 μM] | % inhibition VIM-2 (VIM-2) [% at 100 μM] | % inhibition VIM-4 (VIM-4) [% at 100 μM] | melting point [°C] | Ki (VIM-2; as listed in Table 2, read-out: Ki on VIM-2) [µM] | % inhibition IMP-1 (IMP-1; at 200 μM (maximal tested concentration)) [% at 200 μM] | zone of inhibition at 40 µg/disc [3] [mm]
1 | Fc1ccc(CSCCn2c(-c3ccccc3)n[nH]c2=S)c(F)c1 [Compound 73, 4-[2-(2,4-Difluorobenzylsulfanyl)ethyl]-3-phenyl-4,5-dihydro-1H-1,2,4-triazole-5-thione] | 1 to 10 | < 1 | 10 to 100 | 1 to 10 | 3 | ≥4 |  |  |  |  |  |  |  |  | 
2 | Cn1cccc1-c1n[nH]c(=S)n1CCSCc1ccccc1 [Compound 64, 4-[2-(Benzylthio)ethyl]-5-(1-methyl-1H-pyrrol-2-yl)-2,4-dihydro-1,2,4-triazole-3-thione] | < 1 | < 1 |  |  | 3 | ≥4 | 75 | 90 |  |  |  |  |  |  | 
3 | Fc1ccccc1CSCCn1c(-c2ccccc2)n[nH]c1=S [Compound 71, 4-[2-(2-Fluorobenzylsulfanyl)ethyl]-3-phenyl-4,5-dihydro-1H-1,2,4-triazole-5-thione] | < 1 | < 1 | 10 to 100 |  | ≥4 | 3 |  | 97 |  |  |  |  |  |  | 
4 | O=C(O)C(CCCn1c(-c2ccccc2)n[nH]c1=S)N(Cc1c[nH]cn1)Cc1c[nH]cn1 (centres unmarked) [Compound 69, 2-[Bis(1H-imidazol-5-ylmethyl)amino]-5-(3-phenyl-5-sulfanylidene-4,5-dihydro-1H-1,2,4-triazol-4-yl)pentanoic acid] | < 1 | < 1 |  | > 100 | ≥4 | ≥4 | 85 |  |  |  |  |  |  |  | 
5 | O=C(O)C(CSCCn1c(-c2ccccc2)n[nH]c1=S)c1ccccc1 (centres unmarked) [Compound 78, 2-Phenyl-3-[2-(3-phenyl-5-thioxo-1,4-dihydro-1,2,4-triazol-4-yl)ethylthio]-propionic acid] | < 1 | < 1 | 1 to 10 | 10 to 100 | 3 | 2 |  |  |  |  |  |  |  |  | 
6 | S=c1[nH]nc(-c2ccccc2)n1CCSCCc1ccccc1 [Compound 77, 4-[2-(2-Phenylethylsulfanyl)ethyl]-3-phenyl-4,5-dihydro-1H-1,2,4-triazole-5-thione] | < 1 | 1 to 10 |  |  | 3 | ≥4 | 92 | 89 |  |  |  |  |  |  | 
7 | S=c1[nH]nc(-c2ccccc2)n1CCSc1ccccc1 [Compound 70, 5-Phenyl-4-[2-(phenylthio)ethyl]-2,4-dihydro-1,2,4-triazole-3-thione] | 1 to 10 | 1 to 10 | 10 to 100 |  | ≥4 | ≥4 |  | 84 |  |  |  |  |  |  | 
8 | O=C1OC(Cn2c(-c3ccccc3)n[nH]c2=S)c2ccccc21 (centres unmarked) [Compound 37, 5-Phenyl-4-[(3-phthalideyl)methyl]-2,4-dihydro-1,2,4-triazole-3-thione] | < 1 | > 100 |  | > 100 | 3 | 3 | 50 |  |  |  |  |  |  |  | 
9 | O=C(O)C(CCCn1c(-c2ccccc2)n[nH]c1=S)NCc1cccc(O)c1O (centres unmarked) [Compound 67] |  |  | > 100 | > 100 | 2 | 2 |  |  | 70 | 55 | 60 |  |  |  | 
10 | O=[N+]([O-])c1ccccc1CSCCn1c(-c2ccccc2)n[nH]c1=S [Compound 75, 4-[2-(2-Nitrobenzylsulfanyl)ethyl]-3-phenyl-4,5-dihydro-1H-1,2,4-triazole-5-thione] | < 1 | < 1 |  |  | 3 | ≥4 | 69 | 72 |  |  |  |  |  |  | 
11 | O=C(O)CCSCCn1c(-c2ccccc2)n[nH]c1=S [Compound 66, [2-(3-Phenyl-5-thioxo-1,4-dihydro-1,2,4-triazol-4-yl)ethylthio]propionic acid] | 1 to 10 | 1 to 10 |  |  | 3 | ≥4 | 60 | 65 |  |  |  |  |  |  | 
12 | S=c1[nH]nc(-c2ccccc2)n1CCSCc1ccccc1 [Compound 33, 4-[2-(benzylsulfanyl)ethyl]-3-phenyl-4,5-dihydro-1H-1,2,4-triazole-5-thione] | < 1 | 1 to 10 | 1 to 10 | > 100 | 3 | 2 |  |  |  |  |  | 108 to 109 |  |  | 
13 | O=C(O)CCCCn1c(-c2ccccc2)n[nH]c1=S [Compound 15, 5-(3-phenyl-5-sulfanylidene-4,5-dihydro-1H-1,2,4-triazol-4-yl)pentanoic acid] | > 100 | 1 to 10 | > 100 |  |  |  |  |  |  |  | 85 | 176 to 177 | 1 to 10 | 60 | 3
14 | CN1CCN(CCOc2cccc(-c3n[nH]c(=S)n3CCc3ccccc3C(=O)O)c2)CC1 [Compound 63, o-[2-(3-{m-[2-(4-Methyl-1-piperazinyl)ethoxy]phenyl}-5-thioxo-1,4-dihydro-1,2,4-triazol-4-yl)ethyl]benzoic acid] | 1 to 10 | < 1 | > 100 | > 100 | 2 | 3 |  |  |  |  |  |  |  |  | 
15 | O=[N+]([O-])c1ccc(CSCCn2c(-c3ccccc3)n[nH]c2=S)cc1 [Compound 74, 4-[2-(4-Nitrobenzylsulfanyl)ethyl]-3-phenyl-4,5-dihydro-1H-1,2,4-triazole-5-thione] | < 1 | 1 to 10 |  |  | 3 | ≥4 | 95 | 92 |  |  |  |  |  |  | 
16 | Oc1ccc(CCn2c(-c3cccc(-c4ccccc4)c3)n[nH]c2=S)c(O)c1 [Compound 42, 5-(3-Biphenyl)-4-[2-(2,4-dihydroxyphenyl)ethyl]-1,2,4-triazole-3-thione] | < 1 | 1 to 10 | 10 to 100 | > 100 | ≥4 | ≥4 |  |  |  |  |  |  |  |  | 
17 | O=C(O)c1ccccc1CCn1c(-c2cccc(OCCN3CCOCC3)c2)n[nH]c1=S [Compound 62, o-(2-{3-[m-(2-Morpholinoethoxy)phenyl]-5-thioxo-1,4-dihydro-1,2,4-triazol-4-yl}ethyl)benzoic acid] | 1 to 10 | < 1 | > 100 | > 100 | 2 | 3 |  |  |  |  |  |  |  |  | 
18 | O=C(O)C(CCCn1c(-c2ccccc2)n[nH]c1=S)N(Cc1ccccc1)Cc1ccccc1 (centres unmarked) [Compound 68, 2-[Bis(phenylmethyl)amino]-5-(3-phenyl-5-sulfanylidene-4,5-dihydro-1H-1,2,4-triazol-4-yl)pentanoic acid] | > 100 |  | > 100 | > 100 | 2 | 2 |  |  |  | 65 | 65 |  |  |  | 
